Key:
[1] = molecular target: T1, Vascular endothelial growth factor receptor 2 (Homo sapiens, UniProt P35968); assay: Inhibition of VEGFR-2 (unknown origin)
[2] = molecular target: Platelet-derived growth factor receptor beta (Homo sapiens, UniProt P09619); assay: Inhibition of recombinant human PDGFRbeta using Poly (Glu,Tyr) 4:1 as substrate incubated for 1 hr by ELISA
[3] = molecular target: T1, Vascular endothelial growth factor receptor 2; assay: Inhibition of recombinant human VEGFR2 using Poly (Glu,Tyr) 4:1 as substrate incubated for 1 hr by ELISA
[4] = Inhibition of PDGFRbeta (561 to 1106 residues) (unknown origin); design: species or system Homo sapiens
HUVEC = assay: Inhibition of VEGF-induced HUVECs proliferation; format: functional, cell-based; conditions: Homo sapiens
[5] = Half life in human; format: ADME

T1 sequence (P35968 whole entry): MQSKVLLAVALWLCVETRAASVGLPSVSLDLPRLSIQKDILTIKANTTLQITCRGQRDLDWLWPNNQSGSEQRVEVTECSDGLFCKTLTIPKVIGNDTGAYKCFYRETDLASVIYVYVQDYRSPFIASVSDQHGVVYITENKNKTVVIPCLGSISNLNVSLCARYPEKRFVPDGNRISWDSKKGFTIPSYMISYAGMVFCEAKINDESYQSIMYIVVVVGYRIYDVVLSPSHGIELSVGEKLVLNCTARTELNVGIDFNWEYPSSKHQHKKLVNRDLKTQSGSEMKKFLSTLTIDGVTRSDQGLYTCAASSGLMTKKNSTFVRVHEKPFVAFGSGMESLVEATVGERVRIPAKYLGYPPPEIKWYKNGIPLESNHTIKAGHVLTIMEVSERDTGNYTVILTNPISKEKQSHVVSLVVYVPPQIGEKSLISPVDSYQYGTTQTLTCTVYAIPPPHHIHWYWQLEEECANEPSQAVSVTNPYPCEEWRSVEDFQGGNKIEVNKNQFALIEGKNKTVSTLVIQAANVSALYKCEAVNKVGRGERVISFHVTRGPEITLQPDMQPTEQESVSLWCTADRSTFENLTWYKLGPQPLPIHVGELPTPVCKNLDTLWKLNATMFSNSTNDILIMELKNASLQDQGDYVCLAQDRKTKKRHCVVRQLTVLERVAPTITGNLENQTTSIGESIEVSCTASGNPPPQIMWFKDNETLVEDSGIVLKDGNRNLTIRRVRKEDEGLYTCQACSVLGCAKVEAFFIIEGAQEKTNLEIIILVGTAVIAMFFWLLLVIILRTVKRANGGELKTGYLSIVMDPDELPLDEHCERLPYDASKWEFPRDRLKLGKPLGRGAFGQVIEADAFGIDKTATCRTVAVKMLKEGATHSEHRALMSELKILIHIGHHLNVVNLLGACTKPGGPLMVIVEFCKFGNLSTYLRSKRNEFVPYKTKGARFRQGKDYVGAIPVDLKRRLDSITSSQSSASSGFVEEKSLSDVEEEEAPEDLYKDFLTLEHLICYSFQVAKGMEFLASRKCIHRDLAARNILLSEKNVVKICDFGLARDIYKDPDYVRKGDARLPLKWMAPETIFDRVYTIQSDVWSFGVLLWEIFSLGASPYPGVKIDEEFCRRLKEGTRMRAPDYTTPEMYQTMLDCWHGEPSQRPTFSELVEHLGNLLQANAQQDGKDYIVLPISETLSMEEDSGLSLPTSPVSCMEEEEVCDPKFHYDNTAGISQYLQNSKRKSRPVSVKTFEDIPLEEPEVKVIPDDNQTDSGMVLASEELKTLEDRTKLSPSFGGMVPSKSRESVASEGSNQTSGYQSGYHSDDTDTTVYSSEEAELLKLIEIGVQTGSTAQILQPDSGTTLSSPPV
Chain of Platelet-derived growth factor receptor beta (P09619 whole entry): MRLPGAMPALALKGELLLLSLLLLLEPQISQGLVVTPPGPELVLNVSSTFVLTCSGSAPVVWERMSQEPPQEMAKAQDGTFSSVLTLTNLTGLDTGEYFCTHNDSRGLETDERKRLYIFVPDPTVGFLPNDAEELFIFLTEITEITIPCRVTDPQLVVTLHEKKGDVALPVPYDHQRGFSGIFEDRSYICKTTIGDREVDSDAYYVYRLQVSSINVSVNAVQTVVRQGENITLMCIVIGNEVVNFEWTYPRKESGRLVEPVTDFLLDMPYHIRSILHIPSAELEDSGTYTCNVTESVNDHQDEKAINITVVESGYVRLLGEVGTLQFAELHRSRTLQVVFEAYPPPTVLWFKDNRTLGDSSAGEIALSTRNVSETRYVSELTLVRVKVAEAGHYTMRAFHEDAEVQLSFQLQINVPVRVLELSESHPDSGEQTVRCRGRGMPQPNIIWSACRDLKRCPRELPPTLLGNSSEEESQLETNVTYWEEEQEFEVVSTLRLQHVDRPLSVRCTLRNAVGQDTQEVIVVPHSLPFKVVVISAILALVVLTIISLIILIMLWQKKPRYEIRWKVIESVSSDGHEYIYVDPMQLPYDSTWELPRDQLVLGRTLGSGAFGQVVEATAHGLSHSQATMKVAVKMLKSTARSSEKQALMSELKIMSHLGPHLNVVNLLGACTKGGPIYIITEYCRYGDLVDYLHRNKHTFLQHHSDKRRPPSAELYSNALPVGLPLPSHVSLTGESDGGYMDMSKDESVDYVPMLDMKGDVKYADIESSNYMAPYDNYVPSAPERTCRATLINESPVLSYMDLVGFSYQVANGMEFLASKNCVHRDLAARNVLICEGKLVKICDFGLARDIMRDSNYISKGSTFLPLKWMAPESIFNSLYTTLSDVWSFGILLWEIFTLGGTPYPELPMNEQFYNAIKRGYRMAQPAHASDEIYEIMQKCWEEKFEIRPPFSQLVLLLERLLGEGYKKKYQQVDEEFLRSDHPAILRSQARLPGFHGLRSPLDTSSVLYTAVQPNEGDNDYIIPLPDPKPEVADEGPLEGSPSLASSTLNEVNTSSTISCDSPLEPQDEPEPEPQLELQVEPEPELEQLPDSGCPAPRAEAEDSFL

**Q.** Which IC50 [1] does the source give for `C=C1C(=O)O[C@H]2C[C@H](C)C(/C=C/C(C)=O)=CC[C@H]12` here?
**A.** The IC50 was 380 nM.

**Q.** Which results are given for `COc1cc2c(Oc3ccc4[nH]c(C)cc4c3F)ccnc2cc1OCC1(N)CC1` [CATEQUENTINIB]?
**A.** IC50 [2]: 115 nM; IC50 [1]: < 1 nM; IC50 [3]: 0.2 nM

**Q.** Which IC50 [4] does the source give for `CNC(=O)c1cc(Oc2ccc(NC(=O)Nc3ccc(Cl)c(C(F)(F)F)c3)c(F)c2)ccn1` [REGORAFENIB] here?
**A.** Its IC50 is 22 nM.

**Q.** For `CCN(CC)CCNC(=O)c1c(C)[nH]c(/C=C2\C(=O)Nc3ccc(F)cc32)c1C` [SUNITINIB], which IC50 (HUVEC) is on record?
**A.** Its IC50 is 12 nM.

**Q.** And the half-life [5]?
**A.** Its half-life is greater than 40 h.

**Q.** Which IC50 (HUVEC) does the source give for `Cc1[nH]c(/C=C2\C(=O)Nc3ccc(F)cc32)c(C)c1C(=O)N[C@H]1CCN(C(=O)N(C)C)C1` [VOROLANIB] here?
**A.** The IC50 was 31.5 nM.

**Q.** What about the half-life [5] of the same compound?
**A.** Its half-life is 6.5 h.
